Experimental data from patent US9951040B2, “1,3,5 -triazine based PI3K inhibitors as anticancer agents and a process for the preparation thereof” (Council of Scientific and Industrial Research, priority 2014, dated 2018).
Read-outs that look alike come from different tables or passages of the source.

Target: PI3K alpha (Homo sapiens, UniProt P42336)
Assay: PI3K-α assay (ADP-Glo enzyme inhibition)
Format: biochemical
Conditions: at 500 nm
Protocol: Compounds were evaluated for their ability to inhibit class I PI3-kinase enzyme alpha as given below. PI3K-α Assay: PI3K alpha (diluted in 12.5 mM Glycine-NaOH (pH 8.5), 50 mM KCl, 2.5 mM MgCl2, 1 mM DTT, 0.05% CHAPS) is assayed in total volume of 20 ul containing 12.5 mM glycine-NaOH (pH 8.5), 50 mM KCl, 2.5 mM MgCl2, 1 mM DTT, 0.05% CHAPS, 0.01 mM ATP and 0.05 mM diC8 PIP2. The enzyme is assayed for 80 min after which 20 ul of ADP-Glo reagent is added. After a further incubation of 40 min, 40 ul of Kinase Detection Buffer is added. The assays are incubated for 40 min and then read on PerkinElmer Envision for 1 sec/well.

[1] = read-out: In vitro PI3K α % of inhibition
[2] = read-out: inhibition against PI3K alpha

Chain of PI3K alpha (P42336 whole entry, species assumed): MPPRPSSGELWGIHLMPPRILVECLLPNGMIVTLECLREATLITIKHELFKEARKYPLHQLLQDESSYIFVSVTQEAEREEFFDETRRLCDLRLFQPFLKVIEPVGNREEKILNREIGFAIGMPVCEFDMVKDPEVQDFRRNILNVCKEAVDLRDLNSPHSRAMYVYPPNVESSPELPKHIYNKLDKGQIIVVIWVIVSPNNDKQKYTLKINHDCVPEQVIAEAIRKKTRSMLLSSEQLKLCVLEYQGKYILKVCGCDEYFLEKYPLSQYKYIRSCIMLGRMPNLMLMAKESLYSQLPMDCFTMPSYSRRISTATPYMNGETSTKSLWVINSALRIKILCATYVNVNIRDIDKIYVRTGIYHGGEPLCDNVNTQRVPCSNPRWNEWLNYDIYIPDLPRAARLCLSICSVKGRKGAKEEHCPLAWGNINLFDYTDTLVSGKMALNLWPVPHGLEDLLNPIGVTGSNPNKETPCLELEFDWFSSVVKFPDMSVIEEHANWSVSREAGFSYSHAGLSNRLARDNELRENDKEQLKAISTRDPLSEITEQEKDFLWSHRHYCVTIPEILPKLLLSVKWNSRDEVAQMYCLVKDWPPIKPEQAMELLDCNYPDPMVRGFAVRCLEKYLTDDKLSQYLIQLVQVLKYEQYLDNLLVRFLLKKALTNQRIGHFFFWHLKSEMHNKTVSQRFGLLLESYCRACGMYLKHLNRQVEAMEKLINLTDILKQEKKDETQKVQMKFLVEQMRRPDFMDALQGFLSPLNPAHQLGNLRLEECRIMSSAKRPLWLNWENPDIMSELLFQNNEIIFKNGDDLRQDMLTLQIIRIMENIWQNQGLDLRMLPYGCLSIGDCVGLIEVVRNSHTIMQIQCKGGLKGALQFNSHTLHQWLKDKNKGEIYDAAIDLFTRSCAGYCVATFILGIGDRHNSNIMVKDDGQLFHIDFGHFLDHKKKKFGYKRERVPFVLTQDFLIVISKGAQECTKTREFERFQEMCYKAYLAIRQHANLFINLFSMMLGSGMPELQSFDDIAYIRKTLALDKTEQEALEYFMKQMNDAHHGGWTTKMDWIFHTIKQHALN
Chain of PI3K alpha (P27986 whole entry partner, species assumed): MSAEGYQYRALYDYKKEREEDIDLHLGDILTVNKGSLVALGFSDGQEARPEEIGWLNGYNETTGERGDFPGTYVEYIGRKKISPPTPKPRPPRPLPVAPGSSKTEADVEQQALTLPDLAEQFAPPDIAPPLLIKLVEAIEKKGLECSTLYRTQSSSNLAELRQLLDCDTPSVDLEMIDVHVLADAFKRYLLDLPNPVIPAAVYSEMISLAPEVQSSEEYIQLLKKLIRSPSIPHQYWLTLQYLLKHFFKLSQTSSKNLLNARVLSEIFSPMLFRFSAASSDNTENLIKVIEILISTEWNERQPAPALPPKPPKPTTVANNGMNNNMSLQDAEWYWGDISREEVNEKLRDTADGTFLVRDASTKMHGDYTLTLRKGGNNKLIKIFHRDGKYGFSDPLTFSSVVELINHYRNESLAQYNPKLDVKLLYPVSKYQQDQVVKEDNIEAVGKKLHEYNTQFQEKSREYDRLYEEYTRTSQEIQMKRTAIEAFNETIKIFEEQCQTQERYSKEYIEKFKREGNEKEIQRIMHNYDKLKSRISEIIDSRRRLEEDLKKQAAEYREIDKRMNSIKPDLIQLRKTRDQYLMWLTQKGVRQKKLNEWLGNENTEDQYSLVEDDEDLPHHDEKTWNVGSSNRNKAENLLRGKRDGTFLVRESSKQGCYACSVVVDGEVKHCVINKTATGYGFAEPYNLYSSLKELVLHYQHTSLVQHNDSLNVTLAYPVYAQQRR

Row | Structure (SMILES) | inhibition at 0.5 µM [1] [%] | inhibition at 0.5 µM [2] [%]
1 | CN(c1ccccc1)c1nc(N2CCOCC2)nc(N2CCC(Oc3ccc(F)cc3)CC2)n1 [1A1, 4-(4-(4-fluorophenoxy)piperidin-1-yl)-N-methyl-6-morpholino-N-phenyl-1,3,5-triazin-2-amine] | 50 to 70 | 
2 | CN(c1ccccc1)c1nc(N2CCOCC2)nc(N2CCC(Oc3ccccc3F)CC2)n1 [1A2, 4-(4-(2-fluorophenoxy)piperidin-1-yl)-N-methyl-6-morpholino-N-phenyl-1,3,5-triazin-2-amine] | 50 to 70 | 
3 | CN(c1ccc(F)cc1)c1nc(N2CCOCC2)nc(N2CCC(Oc3ccc(F)cc3)CC2)n1 [1A3, 4-(4-(4-fluorophenoxy)piperidin-1-yl)-N-(4-fluorophenyl)-N-methyl-6-morpholino-1,3,5-triazin-2-amine] | > 70 | > 70
4 | O=C(N(c1ccccc1)c1nc(N2CCOCC2)nc(N2CCC(Oc3ccccc3)CC2)n1)C(F)(F)F [1A4, 2,2,2-trifluoro-N-(4-morpholino-6-(4-phenoxypiperidin-1-yl)-1,3,5-triazin-2-yl)-N-phenylacetamide] | 50 to 70 | 
5 | O=C(N(c1ccc(F)cc1)c1nc(N2CCOCC2)nc(N2CCC(Oc3ccc(F)cc3)CC2)n1)C(F)(F)F [1A6, 2,2,2-trifluoro-N-(4-(4-(4-fluorophenoxy)piperidin-1-yl)-6-morpholino-1,3,5-triazin-2-yl)-N-(4-fluorophenyl)acetamide] | > 70 | > 70
6 | O=C(N(c1ccccc1)c1nc(N2CCOCC2)nc(N2CCC(Oc3ccc(C(F)(F)F)cc3)CC2)n1)C(F)(F)F [1A7, 2,2,2-trifluoro-N-(4-morpholino-6-(4-(4-(trifluoromethyl)phenoxy)piperidin-1-yl)-1,3,5-triazin-2-yl)-N-phenylacetamide] | 50 to 70 | 
7 | Cc1ccc(OC2CCN(c3nc(N4CCOCC4)nc(N(C(=O)C(F)(F)F)c4ccccc4)n3)CC2)cc1 [1A8, 2,2,2-trifluoro-N-(4-morpholino-6-(4-(p-tolyloxy)piperidin-1-yl)-1,3,5-triazin-2-yl)-N-phenylacetamide] | > 70 | > 70
8 | O=C(N(c1ccccc1)c1nc(N2CCOCC2)nc(N2CCC(Oc3ccccc3C(F)(F)F)CC2)n1)C(F)(F)F [1A10, 2,2,2-trifluoro-N-(4-morpholino-6-(4-(2-(trifluoromethyl)phenoxy)piperidin-1-yl)-1,3,5-triazin-2-yl)-N-phenylacetamide] | > 70 | > 70
9 | CN(C(=O)C(F)(F)F)c1nc(N2CCOCC2)nc(N2CCC(Oc3ccccc3)CC2)n1 [1A11, 2,2,2-trifluoro-N-methyl-N-(4-morpholino-6-(4-phenoxypiperidin-1-yl)-1,3,5-triazin-2-yl)acetamide] | 50 to 70 | 
10 | O=C(N(C(=O)C(F)(F)F)c1nc(N2CCOCC2)nc(N2CCC(Oc3ccccc3)CC2)n1)C(F)(F)F [1A12, 2,2,2-trifluoro-N-(4-morpholino-6-(4-phenoxypiperidin-1-yl)-1,3,5-triazin-2-yl)-N-(2,2,2-trifluoroacetyl)acetamide] | 50 to 70 | 
11 | O=C(N(C(=O)C(F)(F)F)c1nc(N2CCOCC2)nc(N2CCC(Oc3ccc(F)cc3)CC2)n1)C(F)(F)F [1A13, 2,2,2-trifluoro-N-(4-(4-(4-fluorophenoxy)piperidin-1-yl)-6-morpholino-1,3,5-triazin-2-yl)-N-(2,2,2-trifluoroacetyl)acetamide] | 50 to 70 | 
12 | O=C(N(C(=O)C(F)(F)F)c1nc(N2CCOCC2)nc(N2CCC(Oc3ccccc3F)CC2)n1)C(F)(F)F [1A14, 2,2,2-trifluoro-N-(4-(4-(2-fluorophenoxy)piperidin-1-yl)-6-morpholino-1,3,5-triazin-2-yl)-N-(2,2,2-trifluoroacetyl)acetamide] | > 70 | > 70
13 | CN(C(=O)C(F)(F)F)c1nc(N2CCOCC2)nc(N2CCC(Oc3ccc(F)cc3)CC2)n1 [1A15, 2,2,2-trifluoro-N-(4-(4-(4-fluorophenoxy)piperidin-1-yl)-6-morpholino-1,3,5-triazin-2-yl)-N-methylacetamide] | > 70 | > 70
14 | Cc1ccc(OC2CCN(c3nc(N(C)C)nc(N4CCOCC4)n3)CC2)cc1 [1A16, N,N-dimethyl-4-morpholino-6-(4-(p-tolyloxy)piperidin-1-yl)-1,3,5-triazin-2-amine] | 50 to 70 | 
15 | CN(C)c1nc(N2CCOCC2)nc(N2CCC(Oc3ccc(F)cc3)CC2)n1 [1A17, 4-(4-(4-fluorophenoxy)piperidin-1-yl)-N,N-dimethyl-6-morpholino-1,3,5-triazin-2-amine] | 50 to 70 | 
16 | c1ccc(OC2CCN(c3nc(N4CCOCC4)nc(N(c4ccccc4)c4ccccc4)n3)CC2)cc1 [1A18, 4-morpholino-6-(4-phenoxypiperidin-1-yl)-N,N-diphenyl-1,3,5-triazin-2-amine] | 50 to 70 | 

Row | Structure (SMILES) | inhibition at 0.5 µM [1] [%] | inhibition at 0.5 µM [2] [%]
17 | FC(F)(F)c1ccccc1OC1CCN(c2nc(N3CCOCC3)nc(N(c3ccccc3)c3ccccc3)n2)CC1 [1A19, 4-morpholino-N,N-diphenyl-6-(4-(2-(trifluoromethyl)phenoxy)piperidin-1-yl)-1,3,5-triazin-2-amine] | > 70 | > 70
18 | FC(F)(F)Oc1ccc(OC2CCN(c3nc(N4CCOCC4)nc(N(c4ccccc4)c4ccccc4)n3)CC2)cc1 [1A20, 4-morpholino-N,N-diphenyl-6-(4-(4-(trifluoromethoxy)phenoxy)piperidin-1-yl)-1,3,5-triazin-2-amine] | 50 to 70 | 
19 | FC(F)c1nc2ccccc2n1-c1nc(N2CCOCC2)nc(N2CCC(Oc3ccc(OC(F)(F)F)cc3)CC2)n1 [1B3, 4-(4-(2-(difluoromethyl)-1H-benzo[d]imidazol-1-yl)-6-(4-(4-(trifluoromethoxy)phenoxy)piperidin-1-yl)-1,3,5-triazin-2-yl)morpholine] | 50 to 70 | 
20 | FC(F)c1nc2ccccc2n1-c1nc(N2CCOCC2)nc(N2CCC(Oc3ccccc3C(F)(F)F)CC2)n1 [1B4, 4-(4-(2-(difluoromethyl)-1H-benzo[d]imidazol-1-yl)-6-(4-(2-(trifluoromethyl)phenoxy)piperidin-1-yl)-1,3,5-triazin-2-yl)morpholine] | > 70 | > 70
21 | Fc1cccc(OC2CCN(c3nc(N4CCOCC4)nc(-n4c(C(F)F)nc5ccccc54)n3)CC2)c1 [1B8, 4-(4-(2-(difluoromethyl)-1H-benzo[d]imidazol-1-yl)-6-(4-(3-fluorophenoxy)piperidin-1-yl)-1,3,5-triazin-2-yl)morpholine] | > 70 | > 70
22 | Fc1ccccc1OC1CCN(c2nc(N3CCOCC3)nc(-n3c(C(F)F)nc4ccccc43)n2)CC1 [1B9, 4-(4-(2-(difluoromethyl)-1H-benzo[d]imidazol-1-yl)-6-(4-(2-fluorophenoxy)piperidin-1-yl)-1,3,5-triazin-2-yl)morpholine] | 50 to 70 | 
23 | Cc1ccc(OC2CCN(c3nc(N4CCOCC4)nc(-n4c(C(F)F)nc5ccccc54)n3)CC2)cc1 [1B10, 4-(4-(2-(difluoromethyl)-1H-benzo[d]imidazol-1-yl)-6-(4-(p-tolyloxy)piperidin-1-yl)-1,3,5-triazin-2-yl)morpholine] | 50 to 70 | 
24 | Cc1ccc(OC2CCN(c3nc(N4CCOCC4)nc(-n4cnc5cc(F)ccc54)n3)CC2)cc1 [1B13, 4-(4-(5-fluoro-1H-benzo[d]imidazol-1-yl)-6-(4-(p-tolyloxy)piperidin-1-yl)-1,3,5-triazin-2-yl)morpholine] | 50 to 70 | 
25 | Fc1ccc2c(c1)ncn2-c1nc(N2CCOCC2)nc(N2CCC(Oc3ccc(C(F)(F)F)cc3)CC2)n1 [1B14, 4-(4-(5-fluoro-1H-benzo[d]imidazol-1-yl)-6-(4-(4-(trifluoromethyl)phenoxy)piperidin-1-yl)-1,3,5-triazin-2-yl)morpholine] | 50 to 70 | 
26 | FC(F)(F)c1ccc(OC2CCN(c3nc(N4CCOCC4)nc(-n4cnc5ccccc54)n3)CC2)cc1 [1B15, 4-(4-(1H-benzo[d]imidazol-1-yl)-6-(4-(4-(trifluoromethyl)phenoxy)piperidin-1-yl)-1,3,5-triazin-2-yl)morpholine] | > 70 | > 70
27 | FC(F)(F)Oc1ccc(OC2CCN(c3nc(N4CCOCC4)nc(-n4cnc5ccccc54)n3)CC2)cc1 [1B16, 4-(4-(1H-benzo[d]imidazol-1-yl)-6-(4-(4-(trifluoromethoxy)phenoxy)piperidin-1-yl)-1,3,5-triazin-2-yl)morpholine] | 50 to 70 | 
28 | Fc1ccc(OC2CCN(c3nc(N4CCOCC4)nc(-n4cnc5ccccc54)n3)CC2)cc1 [1B17, 4-(4-(1H-benzo[d]imidazol-1-yl)-6-(4-(4-fluorophenoxy)piperidin-1-yl)-1,3,5-triazin-2-yl)morpholine] | 50 to 70 | 
29 | Fc1ccccc1OC1CCN(c2nc(N3CCOCC3)nc(-n3cnc4ccccc43)n2)CC1 [1B18, 4-(4-(1H-benzo[d]imidazol-1-yl)-6-(4-(2-fluorophenoxy)piperidin-1-yl)-1,3,5-triazin-2-yl)morpholine] | > 70 | > 70
30 | Clc1ccccc1OC1CCN(c2nc(N3CCOCC3)nc(-n3cnc4ccccc43)n2)CC1 [1B19, 4-(4-(1H-benzo[d]imidazol-1-yl)-6-(4-(2-chlorophenoxy)piperidin-1yl)-1,3,5-triazin-2-yl)morpholine] | > 70 | > 70
31 | FC(F)(F)c1ccccc1OC1CCN(c2nc(N3CCOCC3)nc(-n3cnc4ccccc43)n2)CC1 [1B20, 4-(4-(1H-benzo[d]imidazol-1-yl)-6-(4-(2-(trifluoromethyl)phenoxy)piperidin-1-yl)-1,3,5-triazin-2-yl)morpholine] | 50 to 70 | 
